Experimental data published in ChEMBL document CHEMBL1157802, “5-Functionalized indazoles as glucocorticoid receptor agonists” (Bioorg Med Chem Lett, 2010).
Active and inactive are the calls of the source. The rule behind the calls is not given here.

Key:
[1] = Inhibition of calcium channel L type dihydropyridine binding site at 1 uM
[2] = Selectivity for human glucocorticoid receptor over progesterone receptor
[3] = target: Beta-1 adrenergic receptor (Homo sapiens) (UniProt P08588); assay: Inhibition of adrenergic beta-1 receptor at 1 uM
Sequence of Beta-1 adrenergic receptor (Homo sapiens) (P08588 whole entry, looked up): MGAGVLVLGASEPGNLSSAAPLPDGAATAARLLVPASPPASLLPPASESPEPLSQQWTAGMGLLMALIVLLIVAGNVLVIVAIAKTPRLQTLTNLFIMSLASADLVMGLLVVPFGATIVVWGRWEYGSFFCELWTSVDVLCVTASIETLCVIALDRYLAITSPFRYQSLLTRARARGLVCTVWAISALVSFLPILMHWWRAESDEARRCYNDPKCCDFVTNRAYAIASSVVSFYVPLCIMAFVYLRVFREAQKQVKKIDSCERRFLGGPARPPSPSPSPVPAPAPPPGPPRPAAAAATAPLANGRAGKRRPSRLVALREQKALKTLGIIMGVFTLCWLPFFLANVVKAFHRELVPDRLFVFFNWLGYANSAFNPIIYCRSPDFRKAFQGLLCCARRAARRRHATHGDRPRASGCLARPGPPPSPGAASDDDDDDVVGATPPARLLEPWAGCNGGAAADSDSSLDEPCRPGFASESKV

[4] = Selectivity for human glucocorticoid receptor over androgen receptor
[5] = Inhibition of central benzodiazepine receptor at 1 uM
[6] = Selectivity for human glucocorticoid receptor over ERbeta
[7] = target: T1, Alpha-1B adrenergic receptor (Homo sapiens) (UniProt P35368); assay: Inhibition of adrenergic Alpha-1B receptor at 1 uM
T1 sequence (whole entry): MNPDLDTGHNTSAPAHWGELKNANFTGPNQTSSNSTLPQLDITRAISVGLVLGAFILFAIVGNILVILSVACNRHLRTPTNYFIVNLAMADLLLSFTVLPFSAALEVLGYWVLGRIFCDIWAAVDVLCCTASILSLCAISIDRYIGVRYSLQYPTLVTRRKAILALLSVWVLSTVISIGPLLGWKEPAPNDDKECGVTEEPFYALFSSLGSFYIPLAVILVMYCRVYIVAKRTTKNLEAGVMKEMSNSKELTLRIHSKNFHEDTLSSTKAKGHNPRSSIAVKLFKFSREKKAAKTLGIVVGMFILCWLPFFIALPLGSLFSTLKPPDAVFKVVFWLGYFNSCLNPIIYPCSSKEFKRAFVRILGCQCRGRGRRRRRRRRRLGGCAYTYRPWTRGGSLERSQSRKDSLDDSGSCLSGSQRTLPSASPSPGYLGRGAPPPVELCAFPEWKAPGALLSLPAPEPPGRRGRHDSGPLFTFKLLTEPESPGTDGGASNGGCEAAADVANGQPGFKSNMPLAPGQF

[8] = target: Histamine H1 receptor (Homo sapiens) (UniProt P35367); assay: Inhibition of histamine H1 receptor at 1 uM
Sequence of Histamine H1 receptor (Homo sapiens) (P35367 whole entry): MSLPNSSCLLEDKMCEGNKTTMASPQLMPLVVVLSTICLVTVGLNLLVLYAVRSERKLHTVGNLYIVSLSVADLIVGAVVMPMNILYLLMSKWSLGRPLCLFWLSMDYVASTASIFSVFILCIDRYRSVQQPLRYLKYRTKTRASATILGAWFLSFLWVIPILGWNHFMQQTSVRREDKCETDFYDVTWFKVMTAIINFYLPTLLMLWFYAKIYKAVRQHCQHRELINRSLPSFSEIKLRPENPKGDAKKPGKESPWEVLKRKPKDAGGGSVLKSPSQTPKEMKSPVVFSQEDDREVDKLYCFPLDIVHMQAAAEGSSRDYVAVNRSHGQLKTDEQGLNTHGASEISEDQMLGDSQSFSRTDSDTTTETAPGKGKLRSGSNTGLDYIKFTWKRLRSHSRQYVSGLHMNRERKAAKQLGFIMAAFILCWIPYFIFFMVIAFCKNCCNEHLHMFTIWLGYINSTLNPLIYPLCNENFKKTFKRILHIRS

[9] = Inhibition of phencyclidine receptor at 1 uM
[10] = target: T2, Alpha-1A adrenergic receptor (Homo sapiens) (UniProt P35348); assay: Inhibition of adrenergic alpha1A receptor at 1 uM
T2 sequence (whole entry): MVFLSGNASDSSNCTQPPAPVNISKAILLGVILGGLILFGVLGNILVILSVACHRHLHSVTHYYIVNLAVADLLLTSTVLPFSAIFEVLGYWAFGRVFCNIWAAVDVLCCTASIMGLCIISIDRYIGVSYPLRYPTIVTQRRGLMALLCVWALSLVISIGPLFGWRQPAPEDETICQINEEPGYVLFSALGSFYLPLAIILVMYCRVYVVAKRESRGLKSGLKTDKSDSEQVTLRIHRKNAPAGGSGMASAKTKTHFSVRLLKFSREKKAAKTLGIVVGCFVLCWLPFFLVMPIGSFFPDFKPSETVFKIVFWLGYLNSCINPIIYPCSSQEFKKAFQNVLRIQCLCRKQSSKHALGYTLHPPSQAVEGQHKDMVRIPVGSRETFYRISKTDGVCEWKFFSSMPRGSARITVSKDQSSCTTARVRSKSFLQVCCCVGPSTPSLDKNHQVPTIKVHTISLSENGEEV

[11] = target: Sodium-dependent noradrenaline transporter (Homo sapiens) (UniProt P23975); assay: Inhibition of norepinephrine transporter at 1 uM
Sequence of Sodium-dependent noradrenaline transporter (Homo sapiens) (P23975 whole entry): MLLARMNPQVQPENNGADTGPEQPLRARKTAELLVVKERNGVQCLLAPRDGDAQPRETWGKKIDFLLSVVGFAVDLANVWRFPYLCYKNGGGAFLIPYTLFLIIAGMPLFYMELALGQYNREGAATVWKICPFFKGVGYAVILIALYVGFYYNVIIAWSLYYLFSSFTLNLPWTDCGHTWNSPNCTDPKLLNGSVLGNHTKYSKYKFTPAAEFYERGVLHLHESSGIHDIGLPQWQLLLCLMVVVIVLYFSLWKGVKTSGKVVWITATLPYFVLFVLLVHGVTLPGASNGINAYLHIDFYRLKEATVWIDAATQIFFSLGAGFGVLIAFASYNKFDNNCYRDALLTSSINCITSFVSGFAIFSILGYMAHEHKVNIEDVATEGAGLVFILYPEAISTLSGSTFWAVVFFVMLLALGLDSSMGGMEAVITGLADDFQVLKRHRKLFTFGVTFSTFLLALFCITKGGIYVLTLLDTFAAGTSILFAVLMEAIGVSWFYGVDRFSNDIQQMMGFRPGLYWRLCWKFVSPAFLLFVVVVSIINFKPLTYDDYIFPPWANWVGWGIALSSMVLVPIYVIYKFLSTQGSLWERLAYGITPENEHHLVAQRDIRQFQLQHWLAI

[12] = target: D(1A) dopamine receptor (Homo sapiens) (UniProt P21728); assay: Inhibition of dopamine D1 receptor at 1 uM
Sequence of D(1A) dopamine receptor (Homo sapiens) (P21728 whole entry): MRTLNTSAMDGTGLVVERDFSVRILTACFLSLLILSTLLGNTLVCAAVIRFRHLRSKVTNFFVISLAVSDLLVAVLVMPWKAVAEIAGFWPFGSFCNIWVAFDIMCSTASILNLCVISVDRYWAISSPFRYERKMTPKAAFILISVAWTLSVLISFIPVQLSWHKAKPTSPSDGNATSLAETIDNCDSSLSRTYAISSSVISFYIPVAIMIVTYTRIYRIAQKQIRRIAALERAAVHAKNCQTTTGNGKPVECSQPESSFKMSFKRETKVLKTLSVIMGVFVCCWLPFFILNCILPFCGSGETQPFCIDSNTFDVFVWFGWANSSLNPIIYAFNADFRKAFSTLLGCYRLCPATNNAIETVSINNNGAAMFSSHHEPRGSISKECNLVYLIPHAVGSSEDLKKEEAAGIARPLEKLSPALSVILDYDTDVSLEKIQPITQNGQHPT

[13] = target: Adenosine receptor A2a (Homo sapiens) (UniProt P29274); assay: Inhibition of adenosine A2A receptor at 1 uM
Sequence of Adenosine receptor A2a (Homo sapiens) (P29274 whole entry): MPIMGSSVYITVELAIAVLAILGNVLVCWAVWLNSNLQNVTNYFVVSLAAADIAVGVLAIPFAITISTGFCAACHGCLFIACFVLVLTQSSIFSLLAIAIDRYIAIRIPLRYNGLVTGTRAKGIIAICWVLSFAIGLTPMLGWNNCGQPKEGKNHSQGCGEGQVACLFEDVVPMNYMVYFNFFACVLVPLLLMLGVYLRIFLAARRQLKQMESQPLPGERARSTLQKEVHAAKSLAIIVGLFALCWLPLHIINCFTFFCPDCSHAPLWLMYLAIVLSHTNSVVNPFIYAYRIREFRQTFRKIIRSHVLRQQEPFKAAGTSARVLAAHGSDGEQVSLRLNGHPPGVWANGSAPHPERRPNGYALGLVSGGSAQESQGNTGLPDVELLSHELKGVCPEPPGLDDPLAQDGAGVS

[14] = Inhibition of nicotinic acetylcholine receptor at 1 uM
[15] = Inhibition of NMDA receptor at 1 uM
[16] = Inhibition of ATP-sensitive potassium channel at 1 uM
[17] = target: Mu-type opioid receptor (Homo sapiens) (UniProt P35372); assay: Inhibition of mu opioid receptor at 1 uM
Sequence of Mu-type opioid receptor (Homo sapiens) (P35372 whole entry): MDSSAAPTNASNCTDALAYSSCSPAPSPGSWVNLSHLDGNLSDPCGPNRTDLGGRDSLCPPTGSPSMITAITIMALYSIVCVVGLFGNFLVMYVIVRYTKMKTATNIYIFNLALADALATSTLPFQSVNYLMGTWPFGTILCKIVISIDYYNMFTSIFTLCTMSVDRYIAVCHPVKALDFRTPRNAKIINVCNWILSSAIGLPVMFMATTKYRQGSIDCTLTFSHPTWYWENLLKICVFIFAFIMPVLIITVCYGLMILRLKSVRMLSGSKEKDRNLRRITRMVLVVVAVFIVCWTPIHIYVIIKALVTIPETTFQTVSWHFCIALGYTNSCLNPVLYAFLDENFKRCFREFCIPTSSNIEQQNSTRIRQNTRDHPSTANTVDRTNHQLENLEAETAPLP

[18] = Inhibition of phorbol ester site of PKC at 1 uM
[19] = Inhibition of rolipram binding site at 1 uM
[20] = target: D(2) dopamine receptor (Homo sapiens) (UniProt P14416); assay: Inhibition of dopamine D2S receptor at 1 uM
[21] = target: Prostaglandin E2 receptor EP4 subtype (Homo sapiens) (UniProt P35408); assay: Inhibition of prostanoid EP4 receptor at 1 uM
Sequence of Prostaglandin E2 receptor EP4 subtype (Homo sapiens) (P35408 whole entry): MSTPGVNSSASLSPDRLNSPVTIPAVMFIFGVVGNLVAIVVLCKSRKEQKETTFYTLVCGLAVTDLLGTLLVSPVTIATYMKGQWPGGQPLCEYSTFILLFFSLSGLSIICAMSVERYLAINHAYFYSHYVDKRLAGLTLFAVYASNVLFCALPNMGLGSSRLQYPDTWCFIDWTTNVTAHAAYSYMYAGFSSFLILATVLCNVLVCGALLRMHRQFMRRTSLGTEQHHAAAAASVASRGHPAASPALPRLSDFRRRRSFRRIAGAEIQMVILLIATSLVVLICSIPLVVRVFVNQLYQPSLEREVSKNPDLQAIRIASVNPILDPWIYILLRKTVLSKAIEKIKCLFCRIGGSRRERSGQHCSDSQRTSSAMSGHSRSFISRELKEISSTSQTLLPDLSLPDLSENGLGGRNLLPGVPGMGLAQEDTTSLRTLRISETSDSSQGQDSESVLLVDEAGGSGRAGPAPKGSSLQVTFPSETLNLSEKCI

Mus musculus = assay: Antiinflammatory activity in mouse assessed as reduction of LPS-stimulated TNFalpha expression at 30 mg/kg relative to control; assay type: functional, organism-based; design: dose 30 mg/kg
[22] = target: T3, Adenosine receptor A1 (Homo sapiens) (UniProt P30542); assay: Inhibition of adenosine A1 receptor at 1 uM
T3 sequence (whole entry): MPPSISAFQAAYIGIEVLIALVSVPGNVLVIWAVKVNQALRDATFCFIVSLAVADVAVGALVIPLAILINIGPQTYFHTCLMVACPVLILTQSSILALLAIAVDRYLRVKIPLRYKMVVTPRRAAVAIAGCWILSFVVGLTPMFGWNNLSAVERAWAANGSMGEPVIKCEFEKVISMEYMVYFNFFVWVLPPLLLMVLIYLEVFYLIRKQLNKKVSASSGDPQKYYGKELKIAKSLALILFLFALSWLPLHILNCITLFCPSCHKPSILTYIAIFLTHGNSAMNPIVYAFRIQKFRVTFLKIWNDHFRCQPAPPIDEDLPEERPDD

[23] = Selectivity for human glucocorticoid receptor over ERalpha
[24] = target: Beta-2 adrenergic receptor (Homo sapiens) (UniProt P07550); assay: Inhibition of adrenergic beta2 receptor at 1 uM
Sequence of Beta-2 adrenergic receptor (Homo sapiens) (P07550 whole entry, looked up): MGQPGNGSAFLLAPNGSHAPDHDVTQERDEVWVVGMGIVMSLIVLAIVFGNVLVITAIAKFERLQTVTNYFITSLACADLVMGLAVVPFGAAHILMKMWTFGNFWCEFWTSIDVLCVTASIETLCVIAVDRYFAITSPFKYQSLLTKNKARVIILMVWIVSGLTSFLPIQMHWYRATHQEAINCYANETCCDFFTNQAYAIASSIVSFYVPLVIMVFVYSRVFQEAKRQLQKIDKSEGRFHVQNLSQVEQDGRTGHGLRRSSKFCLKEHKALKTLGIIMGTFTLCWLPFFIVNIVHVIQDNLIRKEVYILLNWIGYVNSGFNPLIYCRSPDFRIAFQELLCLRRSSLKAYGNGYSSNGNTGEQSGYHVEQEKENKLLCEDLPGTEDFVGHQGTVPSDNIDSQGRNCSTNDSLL

[25] = Inhibition of nicotinic bungarotoxin-sensitive acetylcholine receptor at 1 uM
[26] = Inhibition of sodium channel site 2 at 1 uM
[27] = Inhibition of central imidazoline I2 receptor at 1 uM
[28] = target: T4, Alpha-2A adrenergic receptor (Homo sapiens) (UniProt P08913); assay: Inhibition of adrenergic alpha2A receptor at 1 uM
T4 sequence (whole entry): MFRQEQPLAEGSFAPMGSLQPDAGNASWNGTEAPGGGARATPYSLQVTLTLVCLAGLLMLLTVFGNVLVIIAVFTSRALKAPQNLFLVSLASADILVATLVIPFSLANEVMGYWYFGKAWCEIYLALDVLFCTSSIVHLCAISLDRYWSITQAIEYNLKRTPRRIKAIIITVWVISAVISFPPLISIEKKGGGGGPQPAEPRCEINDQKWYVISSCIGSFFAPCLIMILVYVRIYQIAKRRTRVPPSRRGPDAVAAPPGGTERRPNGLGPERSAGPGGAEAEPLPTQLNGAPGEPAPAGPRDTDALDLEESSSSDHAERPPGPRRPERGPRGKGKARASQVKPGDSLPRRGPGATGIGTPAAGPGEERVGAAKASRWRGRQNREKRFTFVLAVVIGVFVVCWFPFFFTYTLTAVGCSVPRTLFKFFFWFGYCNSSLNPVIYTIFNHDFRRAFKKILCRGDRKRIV

[29] = Inhibition of GABAA receptor agonist site at 1 uM; assay type: functional
[30] = target: T5, Muscarinic acetylcholine receptor M2 (Homo sapiens) (UniProt P08172); assay: Inhibition of muscarinic M2 receptor at 1 uM
T5 sequence (whole entry): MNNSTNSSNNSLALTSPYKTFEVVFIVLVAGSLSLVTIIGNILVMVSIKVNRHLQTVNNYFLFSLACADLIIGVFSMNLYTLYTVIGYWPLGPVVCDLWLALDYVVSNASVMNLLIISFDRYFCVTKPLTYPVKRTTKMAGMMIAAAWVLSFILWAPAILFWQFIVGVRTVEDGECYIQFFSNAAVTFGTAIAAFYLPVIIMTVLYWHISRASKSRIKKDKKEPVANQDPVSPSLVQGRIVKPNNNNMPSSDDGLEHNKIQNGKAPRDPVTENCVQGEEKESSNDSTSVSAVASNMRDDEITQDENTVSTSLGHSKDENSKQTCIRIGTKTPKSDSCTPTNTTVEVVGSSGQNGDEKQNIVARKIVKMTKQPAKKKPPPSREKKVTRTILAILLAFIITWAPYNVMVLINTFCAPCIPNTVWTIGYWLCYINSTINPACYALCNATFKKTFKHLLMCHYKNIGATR

[31] = target: Muscarinic acetylcholine receptor M3 (Homo sapiens) (UniProt P20309); assay: Inhibition of muscarinic M3 receptor at 1 uM
Sequence of Muscarinic acetylcholine receptor M3 (Homo sapiens) (P20309 whole entry, looked up): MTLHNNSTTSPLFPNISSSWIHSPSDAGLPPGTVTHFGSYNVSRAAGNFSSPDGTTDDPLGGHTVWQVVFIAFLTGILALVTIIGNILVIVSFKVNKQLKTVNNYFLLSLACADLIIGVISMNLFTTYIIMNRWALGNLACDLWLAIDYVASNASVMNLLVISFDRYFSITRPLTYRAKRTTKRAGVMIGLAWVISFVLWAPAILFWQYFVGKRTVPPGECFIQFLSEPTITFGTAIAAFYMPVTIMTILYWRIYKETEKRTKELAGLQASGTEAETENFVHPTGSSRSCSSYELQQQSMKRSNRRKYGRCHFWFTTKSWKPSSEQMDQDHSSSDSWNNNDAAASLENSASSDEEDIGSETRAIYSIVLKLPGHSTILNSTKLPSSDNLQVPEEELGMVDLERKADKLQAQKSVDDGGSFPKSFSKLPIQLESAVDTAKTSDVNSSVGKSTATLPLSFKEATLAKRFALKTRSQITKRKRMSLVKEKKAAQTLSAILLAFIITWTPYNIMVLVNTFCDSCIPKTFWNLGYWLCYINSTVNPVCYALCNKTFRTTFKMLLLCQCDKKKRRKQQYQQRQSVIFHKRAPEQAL

[32] = target: Sigma non-opioid intracellular receptor 1 (Homo sapiens) (UniProt Q99720); assay: Inhibition of sigma 1 receptor at 1 uM
Sequence of Sigma non-opioid intracellular receptor 1 (Homo sapiens) (Q99720 whole entry): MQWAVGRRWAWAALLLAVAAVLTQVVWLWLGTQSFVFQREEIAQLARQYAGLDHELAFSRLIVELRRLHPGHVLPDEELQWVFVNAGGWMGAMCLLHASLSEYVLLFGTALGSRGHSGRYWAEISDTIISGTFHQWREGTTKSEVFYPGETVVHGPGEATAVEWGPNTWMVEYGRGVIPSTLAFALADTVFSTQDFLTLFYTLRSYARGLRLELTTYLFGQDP

[33] = Inhibition of sigma 2 receptor at 1 uM

SMILES	inhibition [1] [%]	Ratio [2]	inhibition [3] [%]	Ratio [4]	inhibition [5] [%]	Ratio [6]	inhibition [7] [%]	inhibition [8] [%]	inhibition [9] [%]	inhibition [10] [%]	inhibition [11] [%]	inhibition [12] [%]	inhibition [13] [%]	inhibition [14] [%]	inhibition [15] [%]	inhibition [16] [%]	inhibition [17] [%]	inhibition [18] [%]	inhibition [19] [%]	inhibition [20] [%]	also measured
OC(c1ccc2c(cnn2-c2ccc(F)cc2)c1)(c1cccc(Cl)c1Cl)C(F)(F)F (single isomer, unassigned; (+))	< 50	> 1000	< 50	> 1000	< 50	> 1000	< 50	< 50	< 50	< 50	< 50	< 50	< 50	< 50	< 50	< 50	< 50	< 50	< 50	< 50	inhibition [21]: < 50%; Activity (Mus musculus): Active; inhibition [22]: < 50%; Ratio [23]: > 1000; inhibition [24]: < 50%; inhibition [25]: < 50%; inhibition [26]: < 50%; inhibition [27]: < 50%; inhibition [28]: < 50%; inhibition [29]: < 50%; inhibition [30]: < 50%; inhibition [31]: < 50%; inhibition [32]: < 50%; inhibition [33]: < 50%
N#Cc1cc(C(O)(c2ccc3c(cnn3-c3ccc(F)cc3)c2)C(F)(F)F)ccc1F (single isomer, unassigned; (-))	< 50	> 1000	< 50	> 1000	< 50	> 1000	< 50	< 50	< 50	< 50	< 50	< 50	< 50	< 50	< 50	< 50	< 50	< 50	< 50	< 50	inhibition [21]: < 50%; inhibition [22]: < 50%; Ratio [23]: > 1000; inhibition [24]: < 50%; inhibition [25]: < 50%; inhibition [26]: < 50%; inhibition [27]: < 50%; inhibition [28]: < 50%; inhibition [29]: < 50%; inhibition [30]: < 50%; inhibition [31]: < 50%; inhibition [32]: < 50%; inhibition [33]: < 50%
